A word on the solubility: it is the concentration that dissolves in the medium under given conditions. A higher solubility goes with a readily soluble substance. As a reminder, the logD is lipophilicity at a set pH, counting ionised and neutral species. By IC50 is commonly meant the concentration at which inhibition is half-maximal. A higher IC50 goes with a need for much substance. For orientation: Papp means a coefficient for how fast a substance crosses the barrier. What is called fraction unbound is the share of the substance not bound to proteins or other matrix. In general, half-life refers to the time needed for the level to fall by half in the phase considered. A lower half-life goes with rapid decline. The term bioavailability denotes dose-corrected exposure relative to a reference, in per cent.

In brackets after ≈: the same amount, converted by molar mass.

The nature of series [1]: Solubility of compound in PBS buffer at pH 2 at 200 uM incubated for 24 hrs in shaker by UPLC-DAD analysis. It counts as physicochemical.
The nature of series [2]: Solubility of compound in PBS buffer at pH 7 at 200 uM incubated for 24 hrs in shaker by UPLC-DAD analysis. It counts as physicochemical.
Series [3] can be described thus: Lipophilicity, log D of compound in PBS buffer at pH 7 at 200 uM incubated for 24 hrs in shaker by UPLC/DAD analysis. Type of series: physicochemical.
Series [4] deals with Voltage-gated inwardly rectifying potassium channel KCNH2 (Homo sapiens, UniProt Q12809). As to the kind of experiment: Displacement of [35S]-MK499 binding to human ERG expressed in HEK293 cells incubated for 2 hrs by liquid scintillation counting method. It counts as cell-based. Background: Displacement assays read how much labelled ligand stays bound in the presence of the test substance.

The nature of series [5]: Apparent permeability of compound. The note with it: not told. Type of series: ADME.
Series [6] in a line: Inhibition of Na ion channel (unknown origin). Set-up: species or system Homo sapiens.
A short description of series [7]: Protein binding in rat plasma assessed as unbound fraction. It counts as ADME, cell-free.
Series [8] in a line: Unbound clearance in rat at 2 mg/kg, po or 1 mg/kg, iv. Type of series: ADME, organism-based. The note with it: in vivo.
The target of a further series is Cytochrome P450 2C9 (Homo sapiens, UniProt P11712). As to the kind of experiment: Inhibition of CYP2C9 (unknown origin). It counts as ADME.
Series [9] is described as follows: Plasma clearance in rat at 2 mg/kg, po or 1 mg/kg, iv. Type of series: ADME, organism-based.
The nature of series [10]: Half life in rat at 2 mg/kg, po or 1 mg/kg, iv. It counts as ADME, organism-based. The note with it: in vivo.
A short description of series [11]: Oral bioavailability in rat at 2 mg/kg. It counts as ADME, organism-based. The conditions noted are these: in vivo.
A further series has as its target Cytochrome P450 3A4 (Homo sapiens, UniProt P08684). As to the kind of experiment: Inhibition of CYP3A4 (unknown origin). Type of series: ADME.
The nature of series [12]: Protein binding in human plasma assessed as unbound fraction. Type of series: ADME, cell-free.
Series [13] can be described thus: Inhibition of Ca ion channel (unknown origin). Set-up: species or system Homo sapiens.
Series [14] can be described thus: Unbound clearance in rat at 0.05 mg/kg, iv. It counts as ADME, organism-based. The note with it: in vivo.
The nature of series [15]: Drug metabolism in rat hepatocytes assessed as amide hydrolysis metabolite formation at 30 uM measured upto 90 mins by LC-MS analysis. It counts as ADME, cell-based, Hepatocyte.
The nature of series [16]: Drug metabolism in human hepatocytes assessed as amide hydrolysis metabolite formation at 30 uM measured upto 90 mins by LC-MS analysis. It counts as ADME, cell-based, Hepatocyte.
Series [17] can be described thus: Clearance in rat at 0.05 mg/kg, iv. Type of series: ADME, organism-based. The note with it: in vivo.
The nature of series [18]: Drug metabolism in human hepatocytes assessed as oxidative metabolite formation at 30 uM measured upto 90 mins by LC-MS analysis. Type of series: ADME, cell-based, Hepatocyte.
A short description of series [19]: Drug metabolism in rat hepatocytes assessed as oxidative metabolite formation at 30 uM measured upto 90 mins by LC-MS analysis. It counts as ADME, cell-based, Hepatocyte.
The target in series [20] is Indoleamine 2,3-dioxygenase 1 (Homo sapiens) (UniProt P14902). The conditions noted are these: Blood, time 1095.0 min.
Sequence of Indoleamine 2,3-dioxygenase 1 (Homo sapiens) (P14902 whole entry, looked up): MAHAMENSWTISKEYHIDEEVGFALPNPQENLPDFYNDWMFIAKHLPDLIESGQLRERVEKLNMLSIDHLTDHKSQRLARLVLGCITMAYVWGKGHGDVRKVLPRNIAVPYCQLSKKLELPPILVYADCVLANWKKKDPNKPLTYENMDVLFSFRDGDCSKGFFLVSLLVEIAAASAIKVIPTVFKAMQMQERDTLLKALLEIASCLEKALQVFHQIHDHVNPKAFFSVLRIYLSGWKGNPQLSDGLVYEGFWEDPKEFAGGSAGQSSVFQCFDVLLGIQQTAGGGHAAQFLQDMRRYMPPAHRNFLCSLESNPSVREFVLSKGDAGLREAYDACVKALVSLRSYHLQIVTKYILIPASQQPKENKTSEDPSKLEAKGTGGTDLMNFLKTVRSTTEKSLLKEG

Sequence of Cytochrome P450 3A4 (P08684 whole entry): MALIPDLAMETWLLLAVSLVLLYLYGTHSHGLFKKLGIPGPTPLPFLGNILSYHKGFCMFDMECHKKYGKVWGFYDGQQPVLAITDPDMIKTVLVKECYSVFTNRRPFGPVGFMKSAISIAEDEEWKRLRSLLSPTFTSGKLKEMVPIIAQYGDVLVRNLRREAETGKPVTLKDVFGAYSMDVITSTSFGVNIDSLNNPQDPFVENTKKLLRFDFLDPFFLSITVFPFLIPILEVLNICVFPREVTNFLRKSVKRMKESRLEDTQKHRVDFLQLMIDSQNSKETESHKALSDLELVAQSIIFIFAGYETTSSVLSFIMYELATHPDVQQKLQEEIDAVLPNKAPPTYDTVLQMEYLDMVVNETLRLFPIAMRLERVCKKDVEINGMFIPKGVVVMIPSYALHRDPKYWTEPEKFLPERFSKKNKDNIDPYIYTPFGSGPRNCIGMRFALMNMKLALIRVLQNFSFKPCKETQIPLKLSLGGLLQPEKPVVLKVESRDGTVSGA
Sequence of Voltage-gated inwardly rectifying potassium channel KCNH2 (Q12809 whole entry): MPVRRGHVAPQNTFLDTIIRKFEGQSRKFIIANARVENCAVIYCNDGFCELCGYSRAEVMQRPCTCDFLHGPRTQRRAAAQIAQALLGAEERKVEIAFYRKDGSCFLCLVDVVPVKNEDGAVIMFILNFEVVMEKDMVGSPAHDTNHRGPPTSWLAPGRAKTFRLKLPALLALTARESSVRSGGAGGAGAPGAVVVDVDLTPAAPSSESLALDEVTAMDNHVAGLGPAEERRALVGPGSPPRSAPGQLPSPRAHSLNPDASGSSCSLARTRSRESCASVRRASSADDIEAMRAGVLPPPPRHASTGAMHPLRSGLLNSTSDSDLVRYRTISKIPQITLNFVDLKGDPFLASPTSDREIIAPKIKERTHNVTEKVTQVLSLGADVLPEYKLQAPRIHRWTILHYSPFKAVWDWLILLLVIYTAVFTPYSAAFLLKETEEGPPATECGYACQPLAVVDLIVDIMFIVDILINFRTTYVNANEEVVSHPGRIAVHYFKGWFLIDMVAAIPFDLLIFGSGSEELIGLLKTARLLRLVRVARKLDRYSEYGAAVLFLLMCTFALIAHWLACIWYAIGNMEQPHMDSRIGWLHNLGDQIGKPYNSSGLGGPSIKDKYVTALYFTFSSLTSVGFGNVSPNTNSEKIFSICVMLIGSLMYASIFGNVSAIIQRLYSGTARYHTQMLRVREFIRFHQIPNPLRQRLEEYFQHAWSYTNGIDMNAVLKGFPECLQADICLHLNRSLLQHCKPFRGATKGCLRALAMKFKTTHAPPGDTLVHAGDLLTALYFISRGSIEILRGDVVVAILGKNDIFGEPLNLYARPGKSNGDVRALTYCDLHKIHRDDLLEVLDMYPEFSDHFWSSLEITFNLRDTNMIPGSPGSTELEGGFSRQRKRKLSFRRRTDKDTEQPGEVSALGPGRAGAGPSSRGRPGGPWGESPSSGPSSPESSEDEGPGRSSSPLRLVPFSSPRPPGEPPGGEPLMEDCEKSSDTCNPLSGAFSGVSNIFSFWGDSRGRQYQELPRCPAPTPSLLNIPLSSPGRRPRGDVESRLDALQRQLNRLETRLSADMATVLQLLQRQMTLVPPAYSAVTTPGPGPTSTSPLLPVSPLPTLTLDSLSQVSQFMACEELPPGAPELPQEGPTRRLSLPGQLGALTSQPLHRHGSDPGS
Sequence of Cytochrome P450 2C9 (P11712 whole entry): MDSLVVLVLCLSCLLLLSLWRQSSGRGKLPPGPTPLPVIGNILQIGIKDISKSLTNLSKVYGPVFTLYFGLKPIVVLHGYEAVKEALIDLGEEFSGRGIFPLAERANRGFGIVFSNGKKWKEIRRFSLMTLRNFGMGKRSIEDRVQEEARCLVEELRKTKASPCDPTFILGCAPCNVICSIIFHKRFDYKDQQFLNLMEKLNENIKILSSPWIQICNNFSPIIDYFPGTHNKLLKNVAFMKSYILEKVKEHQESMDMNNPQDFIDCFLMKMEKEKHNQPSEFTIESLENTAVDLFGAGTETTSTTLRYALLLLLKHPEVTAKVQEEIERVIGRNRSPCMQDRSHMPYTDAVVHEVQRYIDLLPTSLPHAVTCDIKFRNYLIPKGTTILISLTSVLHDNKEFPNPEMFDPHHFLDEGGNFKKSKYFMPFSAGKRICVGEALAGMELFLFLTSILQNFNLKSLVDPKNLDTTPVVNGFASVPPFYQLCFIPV

For the molecule `C[C@@H](NC(=O)c1ccc(F)cc1)c1ccc2c(n1)CCCN2C(=O)OC1CCC1`, the solubility at 24 h, 200 µM was 184 µM (≈ 73.1 µg/mL) in [1] and 134 µM (≈ 53.3 µg/mL) in [2]. Also, in series [3], the pH-dependent lipophilicity (logD) at 24 h, 200 µM stood at 3.2.
The matching figures for `COC(=O)N1CCCc2nc([C@@H](C)NC(=O)c3ccc(F)cc3)ccc21`: 167 µM (≈ 59.7 µg/mL), 154 µM (≈ 55 µg/mL) and 2.3.
The molecule `Cc1nccc(N2CCCc3nc([C@@H](C)NC(=O)c4ccc(F)cc4)ccc32)n1` yielded an IC50 in series [4] of 18 µM. Also, the solubility at 24 h, 200 µM in series [1] turned out to be 168 µM (≈ 65.8 µg/mL); in [2], 166 µM (≈ 65 µg/mL).
As for `CCOC(=O)N1CCCc2nc([C@@H](C)NC(=O)c3ccc(F)cc3)ccc21`, the solubility at 24 h, 200 µM in series [1] amounted to 183 µM (≈ 68 µg/mL); in [2], 168 µM (≈ 62.4 µg/mL). For the same molecule, in series [3], the logD at 24 h, 200 µM amounted to 2.7.
`C[C@@H](NC(=O)c1ccc(Cl)cc1)c1ccc2c(c1)OCCN2C(=O)c1cccc(Cl)c1`: the IC50 in series [4] came to 6.9 µM. Further, the solubility at 24 h, 200 µM in series [1] amounted to 1 µM (≈ 0.455 µg/mL); in series [2], 3 µM (≈ 1.37 µg/mL). This molecule returned a logD at 24 h, 200 µM in [3] of 3.6.
Regarding `COCCOC(=O)N1CCCc2nc([C@@H](C)NC(=O)c3ccc(F)cc3)ccc21`, the solubility at 24 h, 200 µM in series [1] worked out at 196 µM (≈ 78.7 µg/mL); in series [2] it was 165 µM (≈ 66.2 µg/mL). In series [3], this molecule came in with a logD at 24 h, 200 µM of 2.3.
Take `C[C@@H](NC(=O)c1ccc(F)cc1)c1ccc2c(n1)CCCN2C(=O)OC1CC1`: in series [5], the Papp came to 32 ×10⁻⁶ cm/s. Moreover, the IC50 was found to be 20 µM in [4]; 60 µM in series [6]; 6.2 µM at Cytochrome P450 2C9; 60 µM at Cytochrome P450 3A4; 60 µM in [13]. Further, the values for the solubility at 24 h, 200 µM in [1] and in [2] were 181 µM (≈ 69.4 µg/mL) and 156 µM (≈ 59.8 µg/mL), respectively. The values for the fraction unbound in [7] and in [12] were 0.11 and 0.094, respectively. In addition, in series [8], the CL free is 221 mL/min/kg. Further, the logD at 24 h, 200 µM in series [3] stood at 2.8. The molecule also had a clearance in series [9] of 14 mL/min/kg. For the same molecule, the half-life in series [10] is 1.1 h. This molecule showed a bioavailability in [11] of 40%.
`O=C(NCc1ccc2c(c1)CCCN2C(=O)c1cccc(Cl)c1)c1ccc(Cl)cc1` gave an IC50 in series [4] of 11 µM.
For the molecule `C[C@@H](NC(=O)c1ccc(Cl)cc1)c1ccc2c(n1)CCCN2C(=O)c1cccc(Cl)c1`, the IC50 in series [4] was found to be 8.7 µM. Further, the solubility at 24 h, 200 µM in series [1] was determined as 171 µM (≈ 77.7 µg/mL); in series [2] it was 11 µM (≈ 5 µg/mL). The molecule also came in with a log distribution coefficient (logD) at 24 h, 200 µM in [3] of 3.4.
As to `C[C@@H](NC(=O)c1ccc(F)cc1)c1ccc2c(n1)CCCN2C(=O)c1cccc(Cl)c1`, in series [5], the Papp amounted to 32 ×10⁻⁶ cm/s. Further, the CL free in series [14] came out at 1566 mL/min/kg. Moreover, the IC50 (in series [6]; at Cytochrome P450 3A4; in series [13]) was 20 µM throughout. Besides, the Drug metabolism result in series [15] and in series [16] was “Metabolite_Detected” throughout. Further, the solubility at 24 h, 200 µM worked out at 148 µM (≈ 64.8 µg/mL) in [1] and 82 µM (≈ 35.9 µg/mL) in series [2]. Also, the fraction unbound in series [7] amounted to 0.037; in [12], 0.029. Further, in series [17], the clearance is 57 mL/min/kg. The molecule further had a logD at 24 h, 200 µM in series [3] of 3.1. This molecule also gave a half-life in series [10] of 1.6 h.
Turning to `C[C@@H](NC(=O)c1ccc(F)cc1)c1ccc2c(n1)CCCN2C(=O)OC1COC1`, the values for the solubility at 24 h, 200 µM in [1] and in series [2] were 176 µM (≈ 70.3 µg/mL) and 168 µM (≈ 67.1 µg/mL), respectively. This molecule gave a logD at 24 h, 200 µM in series [3] of 2.
Regarding `C[C@@H](NC(=O)c1ccc(F)cc1)c1ccc2c(n1)CCCN2c1ccnc(C#N)n1`, the figures for the solubility at 24 h, 200 µM in series [1] and in [2] were 163 µM (≈ 65.6 µg/mL) and 152 µM (≈ 61.2 µg/mL), respectively. In addition, the logD at 24 h, 200 µM in series [3] is 2.7.
For the molecule `C[C@@H](NC(=O)c1ccc(Cl)cc1)c1ccc2c(c1)CCCN2C(=O)c1cccc(Cl)c1`, the IC50 in series [4] was determined as 1 µM. The solubility at 24 h, 200 µM in series [1] was less than 1 µM; in series [2] it was 3 µM (≈ 1.36 µg/mL). Besides, the Drug metabolism result in [18] and in series [19] was “Metabolite_Detected” in each case. In [3], this molecule yielded a logD at 24 h, 200 µM of 3.7.
As to `C[C@@H](NC(=O)c1ccc(F)cc1)c1ccc2c(n1)CCCN2c1ccnc(C(F)(F)F)n1`, the Papp in series [5] turned out to be 33 ×10⁻⁶ cm/s. The fIC50 in series [20] stood at 2.1 nM. For the same molecule, the half-maximal inhibitory concentration (IC50) in series [4] is 25 µM; in series [6] it was 7 µM; on Cytochrome P450 2C9 it was 18 µM; against Cytochrome P450 3A4 it was 43 µM; in [13], 6 µM. The solubility at 24 h, 200 µM was 183 µM (≈ 81.5 µg/mL) in series [1] and 166 µM (≈ 73.9 µg/mL) in [2]. Also, the fraction unbound in series [7] amounted to 0.037; in series [12], 0.05.

These data come from ChEMBL document CHEMBL4680374, “Carbamate and N-Pyrimidine Mitigate Amide Hydrolysis: Structure-Based Drug Design of Tetrahydroquinoline IDO1 Inhibitors” (ACS Med Chem Lett, 2021).
